Where “and” joins values, the source holds several entries; their conditions need not be identical. Equal values may be shown once. Inconclusive results and toxic doses are left out.

The text below walks through data of PubChem BioAssay AID330 (DTP/NCI, 2004).

This assay has as its system P388 leukemia ip, CD2F1 mice, survival T/C. Nature of the assay: NCI In Vivo Anticancer Drug Screen. Data for tumor model P388 Leukemia (intraperitoneal) in CD2F1 (CDF1) mice. Conditions: endpoint: median survival time, higher = longer survival. Put shortly:
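Mice carrying the transplanted tumor received test compound or vehicle. Survival was recorded in each group, and the value is the treated-group measurement divided by that of the vehicle-treated control group.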

The mark [1] stands for this setting: dose: 6.25 mg/kg/injection, schedule: Q01DX009 (ip), vehicle: Klucel (hydroxypropylcellulose) (HPC).
Setting [2] is: dose: 12.5 mg/kg/injection, schedule: Q01DX009 (ip), vehicle: Klucel (hydroxypropylcellulose) (HPC).
Where [3] appears, read: dose: 60.0 mg/kg/injection, schedule: Q01DX005 (ip), vehicle: saline with Tween-80.
The mark [4] stands for this setting: dose: 120.0 mg/kg/injection, schedule: Q01DX005 (ip), vehicle: saline with Tween-80.
[5] abbreviates: dose: 240.0 mg/kg/injection, schedule: Q01DX005 (ip), vehicle: saline with Tween-80.
Where [6] appears, read: dose: 25.0 mg/kg/injection, schedule: Q01DX009 (ip), vehicle: Klucel (hydroxypropylcellulose) (HPC).
Setting [7] is: dose: 50.0 mg/kg/injection, schedule: Q01DX005 (ip), vehicle: saline with Tween-80.
Where [8] appears, read: dose: 100.0 mg/kg/injection, schedule: Q01DX005 (ip), vehicle: saline with Tween-80.
[9] abbreviates: dose: 200.0 mg/kg/injection, schedule: Q01DX005 (ip), vehicle: saline with Tween-80.
[10] abbreviates: dose: 50.0 mg/kg/injection, schedule: Q01DX009 (ip), vehicle: Klucel (hydroxypropylcellulose) (HPC).
The mark [11] stands for this setting: dose: 200.0 mg/kg/injection, schedule: Q01DX009 (ip), vehicle: Klucel (hydroxypropylcellulose) (HPC).
Where [12] appears, read: dose: 100.0 mg/kg/injection, schedule: Q01DX009 (ip), vehicle: Klucel (hydroxypropylcellulose) (HPC).
Where [13] appears, read: dose: 100.0 mg/kg/injection, schedule: Q01DX001 (ip), vehicle: Klucel (hydroxypropylcellulose) (HPC).
[14] abbreviates: dose: 200.0 mg/kg/injection, schedule: Q01DX001 (ip), vehicle: Klucel (hydroxypropylcellulose) (HPC).
Setting [15] is: dose: 400.0 mg/kg/injection, schedule: Q01DX001 (ip), vehicle: Klucel (hydroxypropylcellulose) (HPC).

Take `N#C/C1=C(\C#N)CCC2(C#N)C3C=CC(O3)C2(C#N)CC1` (stereo unspecified): the T/C reads like this: (dose: 3.12 mg/kg/injection, schedule: Q01DX009 (ip), vehicle: Klucel (hydroxypropylcellulose) (HPC)) 103 % of control; under setting [1], 100 % of control; under setting [2], 100 % of control.

Regarding `Cc1c(C)c(N(CCCl)CCCl)c(C)c2c1OC(C)(CCCC(C)CCCC(C)CCCC(C)C)CC2` (stereo unspecified), the T/C was 113 % of control (dose: 100.0 mg/kg/injection, schedule: Q04DX002 (ip), vehicle: saline with Tween-80); 113 % of control (dose: 200.0 mg/kg/injection, schedule: Q04DX002 (ip), vehicle: saline with Tween-80); 115 % of control (dose: 400.0 mg/kg/injection, schedule: Q04DX002 (ip), vehicle: saline with Tween-80).

Take `CC1=C(Br)S(=O)(=O)N(c2ccccc2)C(CBr)=C1Br`: the T/C under setting [3] is 100 % of control, the T/C under setting [4] is 91 % of control and the T/C under setting [5] is 93 % of control.

Take `O=[N+]([O-])c1ccc(Oc2ccccc2[N+](=O)[O-])nc1`: the T/C runs as follows: under setting [1], 106 % of control; under setting [2], 105 % of control; under setting [6], 103 % of control.

Take `CC(C(=O)c1ccc(O)cc1)C1(O)C(=O)Nc2ccccc21` (stereo unspecified): the T/C by setting is: under setting [7], 98 % of control; under setting [8], 100 % of control; under setting [9], 101 % of control.

Consider `COc1cccc2c(NCCCNCCCNc3c4ccccc4nc4c(OC)cccc34)c3ccccc3nc12`, for which the T/C reads like this: (dose: 5.0 mg/kg/injection, schedule: Q01DX009 (ip), vehicle: other) 153 % of control; (dose: 10.0 mg/kg/injection, schedule: Q01DX009 (ip), vehicle: other) 157 % of control.

With `COc1cc2c(cc1O)CCCC=C2`, the T/C runs as follows: (dose: 100.0 mg/kg/injection, schedule: Q01DX009 (ip), vehicle: gum acacia) 113 % of control; (dose: 200.0 mg/kg/injection, schedule: Q01DX009 (ip), vehicle: gum acacia) 105 % of control; (dose: 400.0 mg/kg/injection, schedule: Q01DX009 (ip), vehicle: gum acacia) 106 % of control.

Turning to `COC1=CC(=O)C(C2OC(=O)C(Cl)=C2Cl)=CC1=O` (stereo unspecified), the T/C by setting is: under setting [7], 114 % of control; under setting [8], 119 % of control.

On to `CCCCCCCCCSc1nc2ccc(N=Cc3ccccc3O)cc2s1`, for which the T/C by setting is: under setting [2], 100 % of control; under setting [6], 100 % of control; under setting [10], 91 % of control and 92 % of control; under setting [11], 90 % of control.

Regarding `COCCCn1c(C(Cl)(Cl)Cl)nn2c(=O)c3ccccc3nc2c1=O`, the T/C by setting is: (dose: 6.25 mg/kg/injection, schedule: Q01DX009 (ip), vehicle: saline with Tween-80) 96 % of control; (dose: 12.5 mg/kg/injection, schedule: Q01DX009 (ip), vehicle: saline with Tween-80) 91 % of control; (dose: 25.0 mg/kg/injection, schedule: Q01DX009 (ip), vehicle: saline with Tween-80) 100 % of control.

With `CCCCC(=O)C(=O)c1ccc(O)cc1O`, the T/C is 116 % of control under setting [10], 114 % of control under setting [12] and 110 % of control under setting [11].

Turning to `CCn1c2ccccc2c2cc(/C=N/N=C/c3ccc4c(c3)c3ccccc3n4CC)ccc21`, the T/C is 93 % of control (dose: 3.12 mg/kg/injection, schedule: Q01DX005 (ip), vehicle: saline with Tween-80); 90 % of control (dose: 6.25 mg/kg/injection, schedule: Q01DX005 (ip), vehicle: saline with Tween-80); 88 % of control (dose: 12.5 mg/kg/injection, schedule: Q01DX005 (ip), vehicle: saline with Tween-80).

Turning to `NC1=NN(Cc2nnc(-c3ccccc3)s2)C(=O)C1`, the T/C was 93 % of control under setting [3], 101 % of control under setting [4] and 111 % of control under setting [5].

In the case of `Cc1cccc(=O)[n-]1.Cc1cccc(=O)[n-]1.Cc1cccc(=O)[n-]1.Cc1cccc(=O)[n-]1.[Cr+2].[Cr+2]`, the T/C is, setting by setting: (dose: 100.0 mg/kg/injection, schedule: Q04DX002 (ip), vehicle: Klucel (hydroxypropylcellulose) (HPC)) 90 % of control; (dose: 200.0 mg/kg/injection, schedule: Q04DX002 (ip), vehicle: Klucel (hydroxypropylcellulose) (HPC)) 110 % of control; (dose: 400.0 mg/kg/injection, schedule: Q04DX002 (ip), vehicle: Klucel (hydroxypropylcellulose) (HPC)) 120 % of control.

Turning to `O=C1c2ccccc2C(=O)c2c(-c3ccccc3)ccc(-c3ccccc3)c21`, the T/C was 93 % of control under setting [7], 99 % of control under setting [8] and 87 % of control under setting [9].

On to `COC(=O)C1CCC=CC1Sc1ccccc1` (stereo unspecified), for which the T/C runs as follows: under setting [10], 105 % of control; under setting [12], 106 % of control; under setting [11], 112 % of control.

Regarding `Clc1nc2nc(C3CC3)[nH]c2nc1Cl`, the T/C is 100 % of control (dose: 100.0 mg/kg/injection, schedule: Q04DX003 (ip), vehicle: saline with Tween-80); 100 % of control (dose: 200.0 mg/kg/injection, schedule: Q04DX003 (ip), vehicle: saline with Tween-80); 100 % of control (dose: 400.0 mg/kg/injection, schedule: Q04DX003 (ip), vehicle: saline with Tween-80).

For the molecule `C1CSCCSCCCSCCSCCCSCCSC1`, the T/C runs as follows: under setting [13], 97 % of control; under setting [14], 105 % of control; under setting [15], 97 % of control.

As for `C=C(N=NNc1ccccc1)c1ccccc1`, the T/C by setting is: (dose: 50.0 mg/kg/injection, schedule: Q01DX005 (ip), vehicle: Klucel (hydroxypropylcellulose) (HPC)) 97 % of control; (dose: 100.0 mg/kg/injection, schedule: Q01DX005 (ip), vehicle: Klucel (hydroxypropylcellulose) (HPC)) 101 % of control; (dose: 200.0 mg/kg/injection, schedule: Q01DX005 (ip), vehicle: Klucel (hydroxypropylcellulose) (HPC)) 93 % of control.

Consider `c1ccc(CNNc2nn[nH]n2)cc1`, for which the T/C is 96 % of control under setting [13], 95 % of control under setting [14] and 96 % of control under setting [15].

Regarding `C=COC(=O)N(C)C`, the T/C was 110 % of control (dose: 25.0 mg/kg/injection, schedule: Q01DX009 (ip), vehicle: saline); 118 % of control (dose: 50.0 mg/kg/injection, schedule: Q01DX009 (ip), vehicle: saline); 115 % of control (dose: 100.0 mg/kg/injection, schedule: Q01DX009 (ip), vehicle: saline); 120 % of control (dose: 200.0 mg/kg/injection, schedule: Q01DX009 (ip), vehicle: saline).

Consider `CCOP(=O)(O)CC(=O)NC(CC(=O)O)C(=O)O` (stereo unspecified), for which the T/C was 100 % of control and 111 % of control under setting [10]; 103 % of control and 108 % of control under setting [12]; 106 % of control under setting [11].

In the case of `CCOc1cccc(/C=N/n2c(C)nc3ccccc3c2=O)c1O`, the T/C runs as follows: (dose: 50.0 mg/kg/injection, schedule: Q01DX009 (ip), vehicle: saline with Tween-80) 101 % of control; (dose: 100.0 mg/kg/injection, schedule: Q01DX009 (ip), vehicle: saline with Tween-80) 102 % of control; (dose: 200.0 mg/kg/injection, schedule: Q01DX009 (ip), vehicle: saline with Tween-80) 96 % of control.

In the case of `COc1cc2c(cc1OC)[C@H](C(=O)O)[C@@H](c1ccc(OC(C)C)c(OC)c1)N(C)C2=O`, the T/C is 95 % of control under setting [3], 100 % of control under setting [4] and 100 % of control under setting [5].

For `Cc1cc(N=[N+]=[N-])c2ccc(Cl)cc2n1`, the T/C was 94 % of control under setting [3] and 100 % of control under setting [4].

For `COc1ccc2cc1Oc1ccc(cc1)CC1c3c(cc(OC)c(OC)c3Oc3cc4c(cc3OC)CCN(C)C4C2)CCN1C` (stereo unspecified), the T/C by setting is: (dose: 100.0 mg/kg/injection, schedule: Q01DX001 (ip), vehicle: saline with Tween-80) 103 % of control; (dose: 200.0 mg/kg/injection, schedule: Q01DX001 (ip), vehicle: saline with Tween-80) 92 % of control.
